Key:
C6 glioma cells [1] = assay: stimulated nitrite production in C6 glioma cells; assay type: cell-based
NSC-34 cells = assay: NSC-34 viability after H2O2 challenge (tetrazolium reduction); assay type: cell-based, mouse; settings: H2O2 challenge 24 h
Protocol: NSC-34 cells were challenged directly with H2O2 for 24 h and the viability was assessed by tetrazolium reduction assay.
Furthermore, the invention contemplates that cytoprotection might be achieved by providing metabolic precursors to LK, rather than direct addition of the compound. For example, the inventor has studied the effects of NSC-34 cells treated with ethyl pyruvate in the presence or absence of lanthionine for 6 h prior to challenge with H2O2 and has assayed the viability of these cells 24 h later (FIG. 10). As reported in previous studies, ethyl pyruvate alone was protective against peroxide-induced cell death (Desagher et al., 1997; Nakamichi et al., 2005) with complete protection at ethyl pyruvate concentrations >1 mM (approximately 2-fold higher than ambient cell culture medium pyruvate concentrations; data not shown).
(R)-LKE1 protects NSC-34 motoneuron x neuroblastoma hybrid cells from hydrogen peroxide toxicity (FIG. 4). Cells were treated with the indicated concentration of (R)-LKE1. Thirty minutes later cells were challenged with the indicated concentration of hydrogen peroxide. Cell viability was assayed 24 hours later by tetrazolium reduction using a commercially available kit (Promega).
NSC-34 motor neuron-like cells, derived through the fusion of a neuroblastoma cell line with embryonic mouse motor neurons (Cashman et al., 1992), were grown in Dulbeco's modified essential medium (DMEM) plus 5% fetal bovine serum (FBS) and 1% penicillin plus 1% streptomycin (Pen/Strep). Recombinant TNFα and interferon gamma (IFNγ) were purchased from BD Biosciences (Pasadena Calif. USA). Lanthionine was purchased from Sequoia Research Products Ltd. (Pangbourne, UK). All other reagents were of the highest available commercial purity.
NSC-34 cells were exposed to 1 mM H2O2 with or without ethyl-pyruvate and/or lantionine (LK).

C6 glioma cells [2] = assay: C6 glioma cells implanted in rat neocortex; assay type: in vivo, Sprague-Dawley rats; settings: 100 mg/day, 7 days/week from implantation
Protocol: FIG. 16. […] 100,000 C6 glioma cells were implanted in the neocortex of adult male Sprague-Dawley rats. The test group was administered (R)-LKE1 in saline 100 mg/day at each of 7 days/week starting the day of implantation.

human PB monocytes = assay: intracellular TNFα in human peripheral blood monocytes by flow cytometry; assay type: cell-based
Text: Identification of TNFα positive monocytes in peripheral blood by flow cytometry: PB monocytes expressing TNF in response to LPS or PG can be identified and counted using flow cytometry with fluorescent antibodies to stain TNFα. To identify the percentage of monocytes expressing TNFα, PB was stimulated with LPS or PG, stained for surface markers to distinguish monocytes from other leukocytes, and stained for intracellular TNFα to identify monocytes expressing TNFα. The percentage of monocytes positive for TNFα was compared among samples stimulated with LPS, PG, with and without pretreatment with (R)-LKE1, and non-stimulated samples.
The fluorescent antibodies used to identify monocytes surface markers were anti-human CD14-phycoerythrin (PE) and andtiCD16b-fluorescein isothyocyanate (FITC), based on staining intensity for each marker. Monocytes are positive for CD14 and negative for CD16b. This method of separating monocytes from neutrophils was confirmed by sorting cells based on CD14/CD16b intensity, preparing slides, staining with May-Grunwald Giemsa and confirming by morphology.
For analysis of CD14 positive, CD16b negative cells we used dot plots. We first excluded lymphocytes from the analysis by their forward scatter (FSC) and side scatter (SSC) properties, drawing a monocyte/neutrophil gate to exclude lymphocytes (not shown). We then identified CD14+, (y-axis) CD16b− (x-axis) cells by comparison with an unstained sample.
A third dye, PE-Cye7 was used for intracellular cytokine staining of TNFα. The TNFα positive monocytes were identified on a second dot plot of SSC vs. TNFα PE-Cye7 for monocytes only. Cells were counted as positive for TNFα expression if the intensity of PE-Cye7 was greater than in the non-stimulated control. The percent of TNFα positive monocytes was calculated using number positive/total number of monocytes.
PB, heparinized, was diluted 1:3 with DMEM. Diluted blood was placed in 1.0 ml aliquots into wells of a non tissue culture plate. PB was pre-incubated at 37° C. for one hour with LKE (1 mM) or the diluent DMSO (10 μl). […]

Q: How did the “suppression of nitrite production” value (C6 glioma cells [1]; stimulated by TNFα+IFNγ) turn out when `CCOC(=O)[C@@H]1CSCC(C(=O)O)=N1` [(R)-LKE1] was run?
A: does not suppress nitrite production

Q: What about the “suppression of nitrite production” value (C6 glioma cells [1]; stimulated by TNFα+LPS) of the same compound?
A: not to suppress nitrite production

Q: And the “protection from H2O2-induced cell death” value (NSC-34 cells)?
A: protected NSC-34 cells from direct oxidative stress-induced cell death in a dose dependent fashion

Q: And the tumor cell proliferation (C6 glioma cells [2])?
A: inhibits tumor cell proliferation

Q: And the “percent monocytes staining positively for TNFα” value (human PB monocytes; 1 mM pre-incubation, PG 10 ug/ml)?
A: 0.76%

Q: And the “percent monocytes staining positively for TNFα” value (human PB monocytes; 1 mM pre-incubation, Ultra Pure LPS 1 μg/ml)?
A: 25.9%

Q: And the “percent monocytes staining positively for TNFα” value (human PB monocytes; 1 mM, no stimulus)?
A: 0.96%
